Assay [1] addresses BRM (Homo sapiens, UniProt P51531). Description: ATPase catalytic activity assay of BRM (ADP-Glo). The note with it: for IC50: read-out: BRM IC50 (μM)*. The format is biochemical. The method in brief: (§1)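 ADP formed by the ATPase reaction was quantified by ADP-Glo luminescence. After the reaction, unconsumed ATP was depleted (40 min, room temperature), then ADP was converted to ATP for luciferase detection (60 min, room temperature) before reading on a luminometer.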

Assay [2] addresses BRG-1 (Homo sapiens, UniProt P51532). The experiment in a line: ATPase catalytic activity assay of BRG-1 (ADP-Glo). The settings on record: ATPase catalytic activity, ADP-Glo; for IC50: read-out: BRG1 IC50 (μM)*; for Emax: read-out: BRG1 Max % Inhibition. The format is biochemical. The method in brief:
as §1

Chain of BRM (P51531 whole entry): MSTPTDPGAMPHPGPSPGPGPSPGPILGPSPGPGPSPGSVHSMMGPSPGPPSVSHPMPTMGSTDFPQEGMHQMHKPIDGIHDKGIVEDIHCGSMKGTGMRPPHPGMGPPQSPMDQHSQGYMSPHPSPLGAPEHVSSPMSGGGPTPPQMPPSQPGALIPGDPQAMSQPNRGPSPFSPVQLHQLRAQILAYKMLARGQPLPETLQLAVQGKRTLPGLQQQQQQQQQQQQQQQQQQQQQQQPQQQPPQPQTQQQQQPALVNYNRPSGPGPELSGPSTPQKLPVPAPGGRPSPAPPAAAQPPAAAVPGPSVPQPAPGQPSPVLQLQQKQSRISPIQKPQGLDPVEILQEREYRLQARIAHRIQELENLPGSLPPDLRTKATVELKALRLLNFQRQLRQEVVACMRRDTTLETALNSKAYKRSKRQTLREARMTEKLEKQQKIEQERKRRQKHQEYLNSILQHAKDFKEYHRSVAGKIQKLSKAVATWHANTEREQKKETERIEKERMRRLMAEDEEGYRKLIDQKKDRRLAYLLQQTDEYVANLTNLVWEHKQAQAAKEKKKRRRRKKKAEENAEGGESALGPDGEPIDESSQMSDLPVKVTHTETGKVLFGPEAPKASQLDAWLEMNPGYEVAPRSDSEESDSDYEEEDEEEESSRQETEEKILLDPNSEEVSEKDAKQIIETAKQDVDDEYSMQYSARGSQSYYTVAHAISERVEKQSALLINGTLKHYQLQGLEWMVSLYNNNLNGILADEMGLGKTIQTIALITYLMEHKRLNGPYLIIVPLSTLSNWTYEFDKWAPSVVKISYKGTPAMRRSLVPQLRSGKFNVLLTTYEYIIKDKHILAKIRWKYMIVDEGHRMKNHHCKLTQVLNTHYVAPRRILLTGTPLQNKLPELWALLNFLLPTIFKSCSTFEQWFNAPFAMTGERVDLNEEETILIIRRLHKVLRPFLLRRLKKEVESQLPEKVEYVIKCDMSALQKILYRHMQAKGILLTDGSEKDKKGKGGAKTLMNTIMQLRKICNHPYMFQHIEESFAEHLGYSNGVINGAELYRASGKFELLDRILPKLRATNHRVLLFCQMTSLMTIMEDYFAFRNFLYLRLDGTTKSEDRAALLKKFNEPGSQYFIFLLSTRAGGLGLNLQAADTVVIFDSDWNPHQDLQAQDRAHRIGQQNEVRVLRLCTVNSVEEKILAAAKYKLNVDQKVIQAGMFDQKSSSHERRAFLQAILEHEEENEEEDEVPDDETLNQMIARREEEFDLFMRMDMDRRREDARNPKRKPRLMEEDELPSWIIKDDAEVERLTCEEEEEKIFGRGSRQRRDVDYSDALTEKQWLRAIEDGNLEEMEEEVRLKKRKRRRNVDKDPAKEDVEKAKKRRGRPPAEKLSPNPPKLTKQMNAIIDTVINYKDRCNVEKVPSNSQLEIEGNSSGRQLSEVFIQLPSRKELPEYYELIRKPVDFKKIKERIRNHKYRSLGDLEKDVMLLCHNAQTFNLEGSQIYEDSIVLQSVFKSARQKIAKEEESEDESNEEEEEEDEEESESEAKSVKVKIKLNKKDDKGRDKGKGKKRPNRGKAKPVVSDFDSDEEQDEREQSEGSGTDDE
Chain of BRG-1 (P51532 whole entry): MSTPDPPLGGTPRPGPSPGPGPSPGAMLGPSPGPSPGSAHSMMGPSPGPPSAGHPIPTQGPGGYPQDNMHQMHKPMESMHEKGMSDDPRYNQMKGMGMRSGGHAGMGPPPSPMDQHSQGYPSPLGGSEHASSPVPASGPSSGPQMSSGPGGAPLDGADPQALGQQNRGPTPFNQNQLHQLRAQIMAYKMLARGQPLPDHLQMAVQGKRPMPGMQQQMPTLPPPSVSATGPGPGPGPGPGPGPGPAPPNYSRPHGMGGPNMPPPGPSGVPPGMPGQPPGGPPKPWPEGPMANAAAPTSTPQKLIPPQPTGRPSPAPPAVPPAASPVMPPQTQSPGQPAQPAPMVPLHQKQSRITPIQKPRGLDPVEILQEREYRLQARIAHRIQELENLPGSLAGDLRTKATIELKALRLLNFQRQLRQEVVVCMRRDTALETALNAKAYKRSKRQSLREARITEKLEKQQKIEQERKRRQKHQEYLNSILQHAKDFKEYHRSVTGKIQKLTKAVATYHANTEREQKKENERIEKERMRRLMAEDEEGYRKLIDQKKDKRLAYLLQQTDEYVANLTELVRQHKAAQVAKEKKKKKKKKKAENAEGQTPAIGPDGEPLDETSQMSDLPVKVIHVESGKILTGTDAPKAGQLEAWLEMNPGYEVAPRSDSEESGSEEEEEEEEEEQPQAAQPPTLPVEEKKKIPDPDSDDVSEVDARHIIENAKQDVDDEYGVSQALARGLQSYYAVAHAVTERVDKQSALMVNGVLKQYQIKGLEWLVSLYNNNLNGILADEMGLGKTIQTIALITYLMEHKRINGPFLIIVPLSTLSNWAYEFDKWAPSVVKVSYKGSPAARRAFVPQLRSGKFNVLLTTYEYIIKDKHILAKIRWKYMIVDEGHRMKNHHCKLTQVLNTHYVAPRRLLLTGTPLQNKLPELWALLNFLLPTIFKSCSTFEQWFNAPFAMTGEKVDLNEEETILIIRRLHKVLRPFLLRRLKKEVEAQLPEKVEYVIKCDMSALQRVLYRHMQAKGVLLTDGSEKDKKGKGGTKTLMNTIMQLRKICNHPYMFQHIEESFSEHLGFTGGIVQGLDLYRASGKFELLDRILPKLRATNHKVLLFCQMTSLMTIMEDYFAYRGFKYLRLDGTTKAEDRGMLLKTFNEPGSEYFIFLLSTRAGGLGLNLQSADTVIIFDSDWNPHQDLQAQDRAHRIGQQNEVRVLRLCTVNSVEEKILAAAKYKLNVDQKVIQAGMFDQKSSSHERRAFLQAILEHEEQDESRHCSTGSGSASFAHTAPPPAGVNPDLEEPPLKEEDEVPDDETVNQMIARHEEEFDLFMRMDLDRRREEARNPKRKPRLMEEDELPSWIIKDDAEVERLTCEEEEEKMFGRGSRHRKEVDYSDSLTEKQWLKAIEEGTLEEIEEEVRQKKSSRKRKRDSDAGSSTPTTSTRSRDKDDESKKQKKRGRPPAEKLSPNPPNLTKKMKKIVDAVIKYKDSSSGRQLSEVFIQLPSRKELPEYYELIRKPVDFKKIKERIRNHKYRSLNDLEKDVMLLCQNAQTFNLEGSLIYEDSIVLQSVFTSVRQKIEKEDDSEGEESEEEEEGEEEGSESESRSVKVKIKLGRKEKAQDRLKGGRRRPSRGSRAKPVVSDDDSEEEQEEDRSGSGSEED

As for `C[C@@H]1CN(c2cccc(-c3csc(NC(=O)CNC(=O)c4cccc([C@]5(F)C[C@H](O)C5)c4)n3)c2)C[C@H](C)O1` [Compound 150, N-(2-((4-(3-((cis)-2,6-dimethylmorpholino)phenyl)thiazol-2-yl)amino)-2-oxoethyl)-3-((1r,3r)-1-fluoro-3-hydroxycyclobutyl)benzamide], in assay [1], the “BRM Max % Inhibition” value is listed as more than 95% and the IC50 is less than 0.1 µM. Further, in assay [2], the IC50 was in the range of 0.1 to 1 µM and the Emax was more than 90%.

On to `C[C@@H]1CN(c2cccc(-c3csc(NC(=O)CNC(=O)c4cccc([C@]5(F)C[C@@H](O)C5)c4)n3)c2)C[C@H](C)O1` [Compound 151, N-(2-((4-(3-((cis)-2,6-dimethylmorpholino)phenyl)thiazol-2-yl)amino)-2-oxoethyl)-3-((1s,3s)-1-fluoro-3-hydroxycyclobutyl)benzamide], for which, in assay [1], the “BRM Max % Inhibition” value is recorded as more than 95% and the IC50 is less than 0.1 µM. In assay [2], the IC50 is 0.1 to 1 µM and the Emax was more than 95%.

With `C[C@@H]1CN(c2cccc(-c3csc(NC(=O)CNC(=O)c4ccc5c(c4)[C@](C)(C#N)CC5)n3)n2)C[C@H](C)O1` [Compound 152, (R)-3-cyano-N-(2-((4-(6-((cis)-2,6-dimethylmorpholino)pyridin-2-yl)thiazol-2-yl)amino)-2-oxoethyl)-3-methyl-2,3-dihydro-1H-indene-5-carboxamide], in assay [1], the “BRM Max % Inhibition” value is reported as more than 95% and the IC50 was less than 0.1 µM. Besides, in assay [2], the half-maximal inhibitory concentration (IC50) was less than 0.1 µM and the Emax was more than 95%.

Turning to `C[C@@H]1CN(c2cccc(-c3csc(NC(=O)CNC(=O)c4ccc5c(c4)[C@](C)(C#N)CCO5)n3)n2)C[C@H](C)O1` [Compound 153, (R)-4-cyano-N-(2-((4-(6-((cis)-2,6-dimethylmorpholino)pyridin-2-yl)thiazol-2-yl)amino)-2-oxoethyl)-4-methylchroman-6-carboxamide], in assay [1], the “BRM Max % Inhibition” value is listed as more than 95% and the IC50 was less than 0.1 µM. For the same compound, in assay [2], the IC50 was less than 0.1 µM and the Emax is more than 95%.

`Cn1ncc(-c2cccc(-c3csc(NC(=O)CNC(=O)c4cccc(C(C)(C)CO)c4)n3)n2)n1` [Compound 154, 3-(1-hydroxy-2-methylpropan-2-yl)-N-(2-((4-(6-(2-methyl-2H-1,2,3-triazol-4-yl)pyridin-2-yl)thiazol-2-yl)amino)-2-oxoethyl)benzamide]: in assay [1], the “BRM Max % Inhibition” value was more than 90% and the IC50 was in the range of 0.1 to 1 µM. In assay [2], the IC50 fell in the range of 1 to 5 µM and the Emax is more than 60%.

Take `Cn1ncc(-c2cccc(-c3csc(NC(=O)CNC(=O)c4ccc5c(c4)C(C)(CO)CC5)n3)n2)n1` (stereo not shown) [Compound 155, 3-(hydroxymethyl)-3-methyl-N-(2-((4-(6-(2-methyl-2H-1,2,3-triazol-4-yl)pyridin-2-yl)thiazol-2-yl)amino)-2-oxoethyl)-2,3-dihydro-1H-indene-5-carboxamide]: in assay [1], the “BRM Max % Inhibition” value was more than 90% and the IC50 was in the range of 0.1 to 1 µM. In assay [2], the half-inhibitory concentration (IC50) is 1 to 5 µM and the Emax was more than 60%.

On to `C[C@@H]1CN(c2cccc(-c3csc(NC(=O)CNC(=O)c4cccc([C@H]5COC[C@@H]5O)c4)n3)c2)C[C@H](C)O1` [Compound 156, N-(2-((4-(3-((cis)-2,6-dimethylmorpholino)phenyl)thiazol-2-yl)amino)-2-oxoethyl)-3-((3S,4R)-4-hydroxytetrahydrofuran-3-yl)benzamide], for which, in assay [1], the “BRM Max % Inhibition” value is more than 80% and the half-maximal inhibitory concentration (IC50) lay within 0.1 to 1 µM. For the same compound, in assay [2], the IC50 was more than 5 µM and the Emax was more than 30%.

Regarding `C[C@@H]1CN(c2cccc(-c3csc(NC(=O)CNC(=O)c4cccc([C@@H]5COC[C@H]5O)c4)n3)c2)C[C@H](C)O1` [Compound 157, N-(2-((4-(3-((cis)-2,6-dimethylmorpholino)phenyl)thiazol-2-yl)amino)-2-oxoethyl)-3-((3R,4S)-4-hydroxytetrahydrofuran-3-yl)benzamide], in assay [1], the “BRM Max % Inhibition” value was more than 70% and the IC50 lay within 0.1 to 1 µM. Moreover, in assay [2], the IC50 is more than 5 µM and the Emax is more than 30%.

As for `C[C@@H]1CN(c2cccc(-c3csc(NC(=O)CNC(=O)c4ccc5c(c4)[C@](C#N)(CO)CC5)n3)n2)C[C@H](C)O1` [Compound 159, (R)-3-cyano-N-(2-((4-(6-((cis)-2,6-dimethylmorpholino)pyridin-2-yl)thiazol-2-yl)amino)-2-oxoethyl)-3-(hydroxymethyl)-2,3-dihydro-1H-indene-5-carboxamide], in assay [1], the “BRM Max % Inhibition” value is given as more than 95% and the concentration for half-maximal inhibition (IC50) was less than 0.1 µM. Also, in assay [2], the IC50 is less than 0.1 µM and the Emax was more than 95%.

As for `C[C@@H]1CN(c2cccc(-c3csc(NC(=O)CNC(=O)c4cccc([C@@H]5COC[C@H]5O)c4)n3)n2)C[C@H](C)O1` [Compound 160, N-(2-((4-(6-((cis)-2,6-dimethylmorpholino)pyridin-2-yl)thiazol-2-yl)amino)-2-oxoethyl)-3-((3R,4S)-4-hydroxytetrahydrofuran-3-yl)benzamide], in assay [1], the “BRM Max % Inhibition” value was more than 80% and the IC50 is 0.1 to 1 µM. Further, in assay [2], the IC50 is more than 5 µM and the Emax was less than 30%.

As to `C[C@@H]1CN(c2cccc(-c3csc(NC(=O)CNC(=O)c4ccc5c(c4)[C@@H](CO)CC5)n3)n2)C[C@H](C)O1` [Compound 161, (3S)-N-[2-[[4-[6-[(cis)-2,6-dimethylmorpholin-4-yl]-2-pyridyl]thiazol-2-yl]amino]-2-oxo-ethyl]-3-(hydroxymethyl)indane-5-carboxamide], in assay [1], the “BRM Max % Inhibition” value is recorded as more than 95% and the IC50 is less than 0.1 µM. In assay [2], the IC50 lay in the range of 0.1 to 1 µM and the Emax was more than 80%.

In the case of `C[C@@H]1CN(c2cccc(-c3csc(NC(=O)CNC(=O)c4ccc5c(c4)[C@H](CO)CC5)n3)n2)C[C@H](C)O1` [Compound 162, (3R)-N-[2-[[4-[6-[(cis)-2,6-dimethylmorpholin-4-yl]-2-pyridyl]thiazol-2-yl]amino]-2-oxo-ethyl]-3-(hydroxymethyl)indane-5-carboxamide], in assay [1], the “BRM Max % Inhibition” value is on record as more than 70% and the IC50 was 0.1 to 1 µM. Besides, in assay [2], the IC50 is more than 5 µM and the Emax was more than 40%.

Take `Cc1cncc(-c2cccc(-c3csc(NC(=O)CNC(=O)c4ccc5c(c4)[C@](C)(CO)CC5)n3)n2)n1` [Compound 163, (R)-3-(hydroxymethyl)-3-methyl-N-(2-((4-(6-(6-methylpyrazin-2-yl)pyridin-2-yl)thiazol-2-yl)amino)-2-oxoethyl)-2,3-dihydro-1H-indene-5-carboxamide]: in assay [1], the “BRM Max % Inhibition” value is recorded as more than 90% and the IC50 is less than 0.1 µM. In assay [2], the half-maximal inhibitory concentration (IC50) was in the range of 1 to 5 µM and the Emax is more than 40%.

`Cc1cncc(-c2cccc(-c3csc(NC(=O)CNC(=O)c4ccc5c(c4)[C@@](C)(CO)CC5)n3)n2)n1` [Compound 164, (S)-3-(hydroxymethyl)-3-methyl-N-(2-((4-(6-(6-methylpyrazin-2-yl)pyridin-2-yl)thiazol-2-yl)amino)-2-oxoethyl)-2,3-dihydro-1H-indene-5-carboxamide]: in assay [1], the “BRM Max % Inhibition” value was more than 60% and the IC50 lay in the range of 0.1 to 1 µM. Further, in assay [2], the half-maximal inhibitory concentration (IC50) is more than 5 µM and the Emax is less than 30%.

With `C[C@@H]1CN(c2cccc(-c3csc(NC(=O)CNC(=O)c4ccc5c(c4)[C@](C)(CO)CCO5)n3)c2)C[C@H](C)O1` [Compound 165, (R)-N-(2-((4-(3-((cis)-2,6-dimethylmorpholino)phenyl)thiazol-2-yl)amino)-2-oxoethyl)-4-(hydroxymethyl)-4-methylchroman-6-carboxamide], in assay [1], the “BRM Max % Inhibition” value is more than 90% and the IC50 lay in the range of 0.1 to 1 µM. Moreover, in assay [2], the IC50 was more than 5 µM and the Emax was less than 40%.

Consider `C[C@@H]1CN(c2cccc(-c3csc(NC(=O)CNC(=O)c4ccc5c(c4)[C@@](C)(CO)CCO5)n3)c2)C[C@H](C)O1` [Compound 166, (S)-N-(2-((4-(3-((cis)-2,6-dimethylmorpholino)phenyl)thiazol-2-yl)amino)-2-oxoethyl)-4-(hydroxymethyl)-4-methylchroman-6-carboxamide], for which, in assay [1], the “BRM Max % Inhibition” value was more than 95% and the IC50 lay in the range of 0.1 to 1 µM. Moreover, in assay [2], the IC50 is more than 5 µM and the Emax is more than 50%.

As for `C[C@@]1(CO)CCc2ccc(C(=O)NCC(=O)Nc3nc(-c4cccc(-c5cnccn5)n4)cs3)cc21` [Compound 167, (R)-3-(hydroxymethyl)-3-methyl-N-(2-oxo-2-((4-(6-(pyrazin-2-yl)pyridin-2-yl)thiazol-2-yl)amino)ethyl)-2,3-dihydro-1H-indene-5-carboxamide], in assay [1], the “BRM Max % Inhibition” value was more than 95% and the IC50 was 0.1 to 1 µM. For the same compound, in assay [2], the IC50 was more than 5 µM and the Emax was more than 50%.

Regarding `C[C@@H]1CN(c2cccc(-c3csc(NC(=O)CNC(=O)c4cccc(C5(CO)COC5)c4)n3)c2)C[C@H](C)O1` [Compound 168, N-(2-((4-(3-((cis)-2,6-dimethylmorpholino)phenyl)thiazol-2-yl)amino)-2-oxoethyl)-3-(3-(hydroxymethyl)oxetan-3-yl)benzamide], in assay [1], the “BRM Max % Inhibition” value was more than 90% and the IC50 lay within 0.1 to 1 µM. In addition, in assay [2], the IC50 is more than 5 µM and the Emax is more than 50%.

Consider `C[C@]1(CO)CCc2ccc(C(=O)NCC(=O)Nc3nc(-c4cccc(-c5cnccn5)n4)cs3)cc21` [Compound 169, (S)-3-(hydroxymethyl)-3-methyl-N-(2-oxo-2-((4-(6-(pyrazin-2-yl)pyridin-2-yl)thiazol-2-yl)amino)ethyl)-2,3-dihydro-1H-indene-5-carboxamide], for which, in assay [1], the “BRM Max % Inhibition” value is more than 80% and the IC50 is 0.1 to 1 µM. For the same compound, in assay [2], the IC50 is more than 5 µM and the Emax is more than 50%.

For the origin of these results see patent US12685735B2 (Foghorn Therapeutics Inc., priority 2020, dated 2026).
